These results are taken from patent US12552824B2, “C-mannoside compounds useful for the treatment of urinary tract infections” (GLAXOSMITHKLINE INTELLECTUAL PROPERTY DEVELOPMENT LIMITED, priority 2018, dated 2026).

The target of one series is T1, FimH (Escherichia coli, UniProt Q1R2J4).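 Also: concentration in nM.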
T1 construct: endogenous in cells; host or cells: E. coli UTI89 whole bacteria, agglutinating guinea pig red blood cells
The class given is cell-based. As to conditions: concentration reducing bacterial agglutination of guinea pig red blood cells by greater than 90%; UTI89 bacteria. The protocol:
Hemagglutination Inhibition Assay (HAI)
The hemagglutination inhibition (HAI) assay was performed with UTI89 bacteria and guinea pig red blood cells, as previously described (S. J. Hultgren, W. R. Schwan, A. J. Schaeffer, J. L. Duncan Infect. Immun. 1986, 54, 613-620 and Jarvis, C.; Han, Z.; Kalas, V.; Klein, R.; Pinkner, J. S.; Ford, B.; Binkley, J.; Cusumano, C. K.; Cusumano, Z.; Mydock-McGrane, L.; Hultgren, S. J.; Janetka, J. W., ChemMedChem 2016, 11, 367-373).

Series [1] is described as follows: Rat pharmacokinetics: IV infusion 1 mg/kg, then PO 5 mg/kg; blood and urine by LC-MS/MS. The class given is in vivo, Male Wistar Han rats. As to conditions: for bioavailability: male, Wistar Han; for bioavailability / AUC: whole blood; for bioavailability / % F: oral bioavailability, ratio of dose-normalised AUC PO (5 mg/kg) and IV infusion (1 mg/kg); for Ue % po: percentage of oral dose (5 mg/kg) eliminated unchanged in urine; for AUC: area under blood concentration-time profile, PO 5 mg/kg, male Wistar Han rats, n = 3. The source says:
General Assays for Obtaining AUC Oral h*μm, % F, and Ue % PO Values
Male Wistar Han rats were purchased from Vital River Laboratory Animal Technology Co. Ltd (Beijing, China). The animals were approx. 6-8 weeks old with body weights of 200-300 g on the dosing date. The animals were housed in a 12-hour light/12-hour dark cycle environment and had free access to food and water. All animals were fed prior to dosing. Studies were approved by the Pharmaron Institutional Animal Care and Use Committee (IACUC).
Test article was administered as an intravenous infusion for 1 hour (1 mg/kg) at 5 mL/kg/h. After 48 h, animals received a single oral dose (5 mg/kg, free form) at a dose volume of 10 mL/kg, respectively. Blood samples were collected at various time points after IV infusion and PO administrations. Urine samples were collected at various time points after IV infusion and PO administrations.
Test article was dissolved in DMSO with vortexing and sonification to obtain a stock solution. An aliquot of the stock solution was mixed with 10% HP-β-CD in saline with vortexing to obtain a solution with concentration at 0.2 mg/mL of test article.
Test article was added into 1% Methyl Cellulose with vortexing and sonication to obtain a homogeneous suspension with concentration at 0.5 mg/mL of test article.
For IV infusion (1 mg/kg) administration, blood samples were collected from each animal at 0, 0.25, 0.5, 0.75, 1, 1.08, 1.25, 1.5, 1.75, 2, 3, 5, 8, 12, 24 hour post-dose.
For PO (5 mg/kg) administration, blood samples were collected from each animal at 0, 0.25, 0.5, 1, 1.5, 2, 3, 4, 6, 8, 12, 24 hour post-dose.
Blood samples (50 μL) were collected from each animal via jugular vein. These blood samples were placed into tubes containing K2EDTA. Whole blood was mixed with same volume of water and inverted several times. The blood samples were stored at −75±15° C. until analysis.
For IV infusion (1 mg/kg) administration, urine samples were collected from each animal at 0-4, 4-8, 8-12, 12-24 hour post-dose.
For PO (5 mg/kg) administration, urine samples were collected from each animal at 0-4, 4-8, 8-12, 12-24 hour post-dose.
Urine samples were collected continuously into containers maintained over dry ice at the intervals outlined below and stored at −80° C. prior to analysis.
55 μL of standards, 55 μL of QC samples or 55 μL of unknown samples (50 μL of blood or urine with 5 μL 50% acetonitrile) were mixed to 200 μL of acetonitrile containing IS (dexamethasone) to precipitate proteins. Then the samples were vortexed for 30 sec. After centrifugation at 4° C., 4700 rpm for 30 min, and 5 μL of the supernatant was injected into the LC-MS/MS system for quantitative analysis.
Test article blood and urine concentrations for each animal following IV infusion at 1 mg/kg and PO at 5 mg/kg were used to calculate pharmacokinetic parameters by employing a non-compartmental analysis (Phoenix™ WinNonlin® 7.0). The linear trapezoidal algorithm was used for AUC calculation.

Where only a bound is given, the exact number is not on record here.

By bioavailability is commonly meant dose-corrected exposure relative to a reference, in per cent. Broadly, the AUC is concentration integrated over time. A higher AUC goes with high exposure. `Cc1cc(-c2cc(F)c(Cl)c(F)c2)ccc1[C@@H](O)[C@H]1O[C@H](CO)[C@@H](O)[C@H](O)[C@@H]1O` [Example 2, (2R,3S,4S,5S,6R)-2-((R)-(4′-Chloro-3′,5′-difluoro-3-methyl-[1,1′-biphenyl]-4-yl)(hydroxy)methyl)-6-(hydroxymethyl)tetrahydro-2H-pyran-3,4,5-triol]: on FimH, the “HAI titer EC > 90” value is on record as ““++++” (<50 “++++”)”. Besides, in series [1], the bioavailability was in the range of 10 to 30%, the Ue % po result is ““++” (0.5 <= x <= 5%)” and the AUC is over 1 µM·h.
The corresponding values for `Cc1cc(-c2cc(F)c(Br)c(F)c2)ccc1[C@@H](O)[C@H]1O[C@H](CO)[C@@H](O)[C@H](O)[C@@H]1O` [Example 3, (2R,3S,4S,5S,6R)-2-((R)-(4′-Bromo-3′,5′-difluoro-3-methyl-[1,1′-biphenyl]-4-yl)(hydroxy)methyl)-6-(hydroxymethyl)tetrahydro-2H-pyran-3,4,5-triol] are ““++++” (<50 “++++”)”, 10 to 30%, ““++” (0.5 <= x <= 5%)” and over 1 µM·h.
In the case of `C=Cc1c(F)cc(-c2ccc([C@@H](O)[C@H]3O[C@H](CO)[C@@H](O)[C@H](O)[C@@H]3O)c(C)c2)cc1F` [Example 4, (2R,3S,4S,5S,6R)-2-((R)-(3′,5′-Difluoro-3-methyl-4′-vinyl-[1,1′-biphenyl]-4-yl)(hydroxy)methyl)-6-(hydroxymethyl)tetrahydro-2H-pyran-3,4,5-triol], at FimH, the “HAI titer EC > 90” value was ““++++” (<50 “++++”)”. In addition, in series [1], the bioavailability was in the range of 10 to 30%, the Ue % po result was ““++” (0.5 <= x <= 5%)” and the AUC was under 0.5 µM·h.
On the same counts, the results for `Cc1cc(-c2ccc(C(F)(F)F)c(F)c2)ccc1[C@@H](O)[C@H]1O[C@H](CO)[C@@H](O)[C@H](O)[C@@H]1O` [Example 5, (2R,3S,4S,5S,6R)-2-((R)-(3′-Fluoro-3-methyl-4′-(trifluoromethyl)-[1,1′-biphenyl]-4-yl)(hydroxy)methyl)-6-(hydroxymethyl)tetrahydro-2H-pyran-3,4,5-triol] are ““++++” (<50 “++++”)”, 10 to 30%, ““++” (0.5 <= x <= 5%)” and 0.5 to 1 µM·h.
As to `Cc1cc(-c2cc(F)cc(C(F)(F)F)c2)ccc1[C@@H](O)[C@H]1O[C@H](CO)[C@@H](O)[C@H](O)[C@@H]1O` [Example 6, (2R,3S,4S,5S,6R)-2-((R)-(3′-Fluoro-3-methyl-5′-(trifluoromethyl)-[1,1′-biphenyl]-4-yl)(hydroxy)methyl)-6-(hydroxymethyl)tetrahydro-2H-pyran-3,4,5-triol], the “HAI titer EC > 90” value at FimH was ““++++” (<50 “++++”)”. Also, in series [1], the bioavailability lay in the range of 10 to 30%, the Ue % po entry was ““++” (0.5 <= x <= 5%)” and the AUC is under 0.5 µM·h.
The corresponding values for `Cc1cc(-c2cc(F)c(F)c(F)c2)ccc1[C@@H](O)[C@H]1O[C@H](CO)[C@@H](O)[C@H](O)[C@@H]1O` [Example 7, (2R,3S,4S,5S,6R)-2-((R)-Hydroxy(3′,4′,5′-trifluoro-3-methyl-[1,1′-biphenyl]-4-yl)methyl)-6-(hydroxymethyl)tetrahydro-2H-pyran-3,4,5-triol] are ““++++” (<50 “++++”)”, over 30%, ““+++” (>5%)” and over 1 µM·h.
For the molecule `OC[C@H]1O[C@H]([C@H](O)c2ccc(-c3cc(F)cc(F)c3)cc2C(F)(F)F)[C@@H](O)[C@@H](O)[C@@H]1O` [Example 8, (2R,3S,4S,5S,6R)-2-((R)-(3′,5′-Difluoro-3-(trifluoromethyl)-[1,1′-biphenyl]-4-yl)(hydroxy)methyl)-6-(hydroxymethyl)tetrahydro-2H-pyran-3,4,5-triol], at FimH, the “HAI titer EC > 90” value was ““++++” (<50 “++++”)”. In series [1], the bioavailability was over 30%, the Ue % po entry was ““++” (0.5 <= x <= 5%)” and the AUC was under 0.5 µM·h.
The corresponding values for `Cc1cc(-c2cc(F)cc(F)c2)ccc1[C@@H](O)[C@H]1O[C@H](CO)[C@@H](O)[C@H](O)[C@@H]1O` [Example 9, (2R,3S,4S,5S,6R)-2-((R)-(3′,5′-Difluoro-3-methyl-[1,1′-biphenyl]-4-yl)(hydroxy)methyl)-6-(hydroxymethyl)tetrahydro-2H-pyran-3,4,5-triol] are ““++++” (<50 “++++”)”, over 30%, ““+++” (>5%)” and 0.5 to 1 µM·h.
For the molecule `Cc1cc(F)c(-c2ccc([C@@H](O)[C@H]3O[C@H](CO)[C@@H](O)[C@H](O)[C@@H]3O)c(C)c2)cc1Cl` [Example 11], the “HAI titer EC > 90” value at FimH is reported as ““+++” (50-200 “+++”)”. In series [1], the “% F” value is reported as ““+++” (>30%)” and the Ue % po result was ““++” (0.5 <= x <= 5%)”.
The corresponding values for `Cc1cc(-c2ccc(Cl)c(Cl)c2)ccc1[C@@H](O)[C@H]1O[C@H](CO)[C@@H](O)[C@H](O)[C@@H]1O` [Example 15] are ““++++” (<50 “++++”)”, ““++” (10 <= x <= 30%)” and ““++” (0.5 <= x <= 5%)”.
The corresponding values for `Cc1cc(-c2cc(Cl)cc(Cl)c2)ccc1[C@@H](O)[C@H]1O[C@H](CO)[C@@H](O)[C@H](O)[C@@H]1O` [Example 16] are ““++++” (<50 “++++”)”, ““++” (10 <= x <= 30%)” and ““++” (0.5 <= x <= 5%)”.
The corresponding values for `COc1cc(F)cc(-c2ccc([C@@H](O)[C@H]3O[C@H](CO)[C@@H](O)[C@H](O)[C@@H]3O)c(C)c2)c1` [Example 24] are ““++++” (<50 “++++”)”, ““++” (10 <= x <= 30%)” and ““++” (0.5 <= x <= 5%)”.
As to `OC[C@H]1O[C@H]([C@H](O)c2c(F)cc(-c3cc(F)cc(F)c3)cc2C(F)(F)F)[C@@H](O)[C@@H](O)[C@@H]1O` [Example 32], the “HAI titer EC > 90” value on FimH is recorded as ““++++” (<50 “++++”)”. Besides, in series [1], the “% F” value is given as ““++” (10 <= x <= 30%)” and the Ue % po entry was ““++” (0.5 <= x <= 5%)”.
On the same counts, the results for `COc1cc(-c2ccc([C@@H](O)[C@H]3O[C@H](CO)[C@@H](O)[C@H](O)[C@@H]3O)c(C)c2)cc(C(F)(F)F)c1` [Example 61] are ““++++” (<50 “++++”)”, ““++” (10 <= x <= 30%)” and ““+” (<0.5%)”.
On the same counts, the results for `Cc1cc(-c2cc(F)c(C(F)(F)F)c(F)c2)ccc1[C@@H](O)[C@H]1O[C@H](CO)[C@@H](O)[C@H](O)[C@@H]1O` [Example 64] are ““++++” (<50 “++++”)”, ““++” (10 <= x <= 30%)” and ““++” (0.5 <= x <= 5%)”.
On the same counts, the results for `Cc1cc(-c2cc(F)c(F)c(Cl)c2)ccc1[C@@H](O)[C@H]1O[C@H](CO)[C@@H](O)[C@H](O)[C@@H]1O` [Example 73] are ““++++” (<50 “++++”)”, ““++” (10 <= x <= 30%)” and ““++” (0.5 <= x <= 5%)”.
Turning to `Cc1cc(-c2cc(C(F)(F)F)cc(C(F)(F)F)c2)ccc1[C@@H](O)[C@H]1O[C@H](CO)[C@@H](O)[C@H](O)[C@@H]1O` [Example 74], the “HAI titer EC > 90” value on FimH is given as ““++++” (<50 “++++”)”. For the same molecule, in series [1], the “% F” value is reported as ““++” (10 <= x <= 30%)” and the Ue % po result is ““+” (<0.5%)”.
